The values below come from ChEMBL document CHEMBL1201862, “PubChem BioAssay data set” (2004).

Activity calls are given as the source filed them.

The term EC50 denotes the concentration at which the effect is half-maximal.

Test [1] concerns the target T1, Sentrin-specific protease 6 (Homo sapiens, UniProt Q9GZR1).
T1 sequence (Q9GZR1 whole entry): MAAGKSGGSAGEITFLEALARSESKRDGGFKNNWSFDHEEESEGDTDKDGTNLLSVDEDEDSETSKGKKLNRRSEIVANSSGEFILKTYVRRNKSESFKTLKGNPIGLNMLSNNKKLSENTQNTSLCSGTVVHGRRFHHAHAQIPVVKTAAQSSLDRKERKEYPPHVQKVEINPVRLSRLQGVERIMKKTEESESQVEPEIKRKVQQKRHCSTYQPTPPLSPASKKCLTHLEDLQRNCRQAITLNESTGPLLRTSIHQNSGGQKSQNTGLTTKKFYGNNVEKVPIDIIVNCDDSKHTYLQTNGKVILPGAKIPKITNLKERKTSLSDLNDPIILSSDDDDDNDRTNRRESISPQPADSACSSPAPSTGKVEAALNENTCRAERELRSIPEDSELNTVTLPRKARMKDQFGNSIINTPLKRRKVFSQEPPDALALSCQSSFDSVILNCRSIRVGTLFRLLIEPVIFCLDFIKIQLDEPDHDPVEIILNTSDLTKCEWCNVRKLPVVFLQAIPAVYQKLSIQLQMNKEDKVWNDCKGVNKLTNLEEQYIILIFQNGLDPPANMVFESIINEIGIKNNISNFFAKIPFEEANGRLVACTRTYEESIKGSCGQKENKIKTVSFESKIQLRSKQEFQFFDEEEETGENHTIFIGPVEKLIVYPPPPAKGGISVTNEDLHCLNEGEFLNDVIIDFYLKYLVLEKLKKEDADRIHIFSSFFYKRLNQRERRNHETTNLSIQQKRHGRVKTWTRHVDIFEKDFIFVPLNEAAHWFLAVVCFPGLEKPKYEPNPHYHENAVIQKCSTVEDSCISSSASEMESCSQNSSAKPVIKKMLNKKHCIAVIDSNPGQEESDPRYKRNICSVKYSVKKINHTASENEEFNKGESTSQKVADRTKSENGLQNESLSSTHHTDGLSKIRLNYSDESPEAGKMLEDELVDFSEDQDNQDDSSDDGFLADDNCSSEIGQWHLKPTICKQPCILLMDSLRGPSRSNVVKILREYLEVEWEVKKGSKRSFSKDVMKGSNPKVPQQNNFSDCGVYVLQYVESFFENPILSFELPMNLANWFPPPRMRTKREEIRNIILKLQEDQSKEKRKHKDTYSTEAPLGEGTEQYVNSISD
Briefly: SAR Analysis of small molecule inhibitors of Sentrin-specific protease 6 (SENP6) using a Luminescent assay. [Related pubchem assays (depositor defined):AID2582, AID2599]. In kind it is functional.

Test [2] has as its target T2, Sentrin-specific protease 7 (Homo sapiens, UniProt Q9BQF6).
T2 sequence (Q9BQF6 whole entry): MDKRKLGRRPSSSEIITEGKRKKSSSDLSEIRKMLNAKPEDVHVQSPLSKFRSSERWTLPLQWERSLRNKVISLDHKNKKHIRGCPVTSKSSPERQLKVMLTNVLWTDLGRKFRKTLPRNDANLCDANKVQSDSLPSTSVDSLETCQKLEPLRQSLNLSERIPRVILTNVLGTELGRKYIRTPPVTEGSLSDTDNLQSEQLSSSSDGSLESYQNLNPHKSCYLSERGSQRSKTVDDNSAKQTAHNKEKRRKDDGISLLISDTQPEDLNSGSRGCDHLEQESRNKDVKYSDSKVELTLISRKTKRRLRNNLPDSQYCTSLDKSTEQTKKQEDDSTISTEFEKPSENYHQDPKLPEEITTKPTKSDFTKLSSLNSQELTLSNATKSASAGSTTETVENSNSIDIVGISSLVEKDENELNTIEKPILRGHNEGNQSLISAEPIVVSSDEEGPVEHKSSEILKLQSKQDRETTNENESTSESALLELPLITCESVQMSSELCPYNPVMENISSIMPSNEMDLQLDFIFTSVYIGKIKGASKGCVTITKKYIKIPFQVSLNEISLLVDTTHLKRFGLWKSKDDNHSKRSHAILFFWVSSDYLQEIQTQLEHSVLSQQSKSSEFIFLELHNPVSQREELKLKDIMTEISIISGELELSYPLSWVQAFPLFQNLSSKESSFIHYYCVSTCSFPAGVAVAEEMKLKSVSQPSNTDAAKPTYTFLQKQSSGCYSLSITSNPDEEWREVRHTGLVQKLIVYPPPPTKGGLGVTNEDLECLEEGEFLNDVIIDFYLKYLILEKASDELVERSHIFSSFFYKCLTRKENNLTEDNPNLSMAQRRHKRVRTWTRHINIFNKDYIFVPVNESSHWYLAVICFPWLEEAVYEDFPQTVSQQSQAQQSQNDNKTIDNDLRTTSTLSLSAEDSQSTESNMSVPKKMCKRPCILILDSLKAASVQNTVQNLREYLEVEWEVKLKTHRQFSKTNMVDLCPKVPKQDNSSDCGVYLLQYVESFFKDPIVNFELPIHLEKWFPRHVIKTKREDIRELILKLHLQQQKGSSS
Briefly: inhibition of human SENP7 cleavage activity – biochemical, luminescence, SAR follow-up (AID 504497). Type of test: functional.

Test [3] deals with T3, Sentrin-specific protease 8 (Homo sapiens, UniProt Q96LD8).
T3 sequence (Q96LD8 whole entry): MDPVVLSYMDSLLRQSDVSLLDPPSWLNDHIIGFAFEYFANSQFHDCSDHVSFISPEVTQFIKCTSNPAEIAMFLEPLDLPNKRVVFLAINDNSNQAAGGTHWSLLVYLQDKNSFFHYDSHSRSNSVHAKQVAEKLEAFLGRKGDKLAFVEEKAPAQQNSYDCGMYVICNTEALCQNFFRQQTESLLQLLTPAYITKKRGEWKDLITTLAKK
Briefly: inhibition of human SENP8 cleavage activity – biochemical, luminescence, SAR follow-up (AID 504501). In kind it is functional.

The target of a further test is T4, Caspase-3 (Homo sapiens, UniProt P42574).
T4 sequence (P42574 whole entry): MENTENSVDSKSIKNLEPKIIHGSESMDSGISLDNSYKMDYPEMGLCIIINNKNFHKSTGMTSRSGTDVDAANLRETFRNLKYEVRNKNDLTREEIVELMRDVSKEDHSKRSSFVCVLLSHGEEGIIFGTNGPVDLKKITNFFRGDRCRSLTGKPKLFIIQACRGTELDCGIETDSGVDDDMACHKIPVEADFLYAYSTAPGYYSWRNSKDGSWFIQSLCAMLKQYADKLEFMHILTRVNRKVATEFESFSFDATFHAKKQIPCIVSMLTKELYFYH
As to the kind of experiment: SAR Analysis of small molecule inhibitors of Sentrin-specific proteases (SENPs) using a Caspase-3 Selectivity assay. [Related pubchem assays (depositor defined):AID2540, AID2599, AID434973, AID489001]. In kind it is functional.

The target in test [4] is DNA dC->dU-editing enzyme APOBEC-3G (Homo sapiens, UniProt Q9HC16). As to the kind of experiment: inhibition of APOBEC3G ssDNA deamination – biochemical, fluorescence, single-stranded DNA substrate, SAR follow-up (AID 602136). To be noted: read-out: IC50_Mean. In kind it is functional.
Chain of DNA dC->dU-editing enzyme APOBEC-3G (Q9HC16 whole entry): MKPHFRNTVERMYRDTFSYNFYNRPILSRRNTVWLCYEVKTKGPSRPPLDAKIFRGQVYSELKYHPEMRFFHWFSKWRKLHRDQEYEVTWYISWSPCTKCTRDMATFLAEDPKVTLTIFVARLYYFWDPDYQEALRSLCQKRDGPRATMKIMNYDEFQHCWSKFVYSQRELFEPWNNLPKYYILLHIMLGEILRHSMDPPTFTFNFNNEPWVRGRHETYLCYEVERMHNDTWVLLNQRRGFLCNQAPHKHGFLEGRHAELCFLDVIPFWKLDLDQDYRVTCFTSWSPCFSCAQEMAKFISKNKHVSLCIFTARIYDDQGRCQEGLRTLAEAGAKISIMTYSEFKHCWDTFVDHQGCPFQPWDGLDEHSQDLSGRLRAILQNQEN
Test [5] concerns the target DNA dC->dU-editing enzyme APOBEC-3A (Homo sapiens, UniProt P31941). Briefly: SAR analysis of small molecule inhibitors of APOBEC3A DNA Deaminase via a fluorescence-based single-stranded DNA deaminase assay. Type of test: functional. The conditions noted are these: read-out: IC50_Mean.
Test [6] in a line: NIH3T3 cell viability loss – ATP luminescence, mouse fibroblasts, counter-screen, dose response (AID 2010).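 Further: cells exposed to compound for about 90 hours before reading.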 In kind it is functional, cell-based. For orientation: A counterscreen serves to expose hits that act by an unwanted route or on another target.
Test [7] can be described thus: Trypanosoma cruzi growth suppression in host cells – NIH3T3 host cells, beta-gal luminescence, confirmation (AID 2044).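 Further: intracellular parasites grown in NIH/3T3 mouse fibroblasts as host cells; luminescent beta-galactosidase reporter signal from transgenic T. cruzi replicating inside host cells; inhibitors lower the luminescence signal.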 In kind it is functional, cell-based.
Test [8] concerns the target T5, Insulin-degrading enzyme (Homo sapiens, UniProt P14735).
T5 sequence (P14735 whole entry): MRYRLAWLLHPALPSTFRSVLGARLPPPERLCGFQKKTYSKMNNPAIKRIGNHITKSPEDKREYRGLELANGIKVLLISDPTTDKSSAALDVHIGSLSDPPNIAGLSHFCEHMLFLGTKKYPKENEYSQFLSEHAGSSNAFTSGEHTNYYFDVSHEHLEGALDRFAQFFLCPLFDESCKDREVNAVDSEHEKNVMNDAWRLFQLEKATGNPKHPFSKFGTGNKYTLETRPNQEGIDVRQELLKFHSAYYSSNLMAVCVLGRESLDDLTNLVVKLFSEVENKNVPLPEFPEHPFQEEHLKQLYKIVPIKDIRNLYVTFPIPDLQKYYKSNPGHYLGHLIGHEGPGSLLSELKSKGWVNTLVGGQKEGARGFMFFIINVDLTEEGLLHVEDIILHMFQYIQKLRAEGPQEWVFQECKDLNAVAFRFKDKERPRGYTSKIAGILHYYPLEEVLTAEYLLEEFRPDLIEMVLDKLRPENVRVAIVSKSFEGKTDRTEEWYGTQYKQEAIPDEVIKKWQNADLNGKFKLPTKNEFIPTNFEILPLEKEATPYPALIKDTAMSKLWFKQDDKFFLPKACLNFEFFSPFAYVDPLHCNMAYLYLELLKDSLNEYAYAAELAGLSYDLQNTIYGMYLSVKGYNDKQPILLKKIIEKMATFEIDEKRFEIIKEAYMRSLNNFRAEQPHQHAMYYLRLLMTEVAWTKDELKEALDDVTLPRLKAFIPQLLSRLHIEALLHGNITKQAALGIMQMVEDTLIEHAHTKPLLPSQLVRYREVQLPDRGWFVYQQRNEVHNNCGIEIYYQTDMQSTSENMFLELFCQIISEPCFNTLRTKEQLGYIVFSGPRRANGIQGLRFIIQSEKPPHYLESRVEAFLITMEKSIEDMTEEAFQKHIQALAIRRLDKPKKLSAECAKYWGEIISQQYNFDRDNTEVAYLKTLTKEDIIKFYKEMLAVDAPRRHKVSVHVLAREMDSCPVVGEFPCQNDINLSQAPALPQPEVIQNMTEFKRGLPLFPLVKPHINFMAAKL
Briefly: cellular IDE activation of Abeta substrate cleavage – fluorescence polarization, HEK cells, dose response (AID 588439). Type of test: functional, cell-based. For orientation: In fluorescence polarisation assays a small probe gives low polarisation when free and higher when bound to something large.

The target in test [9] is T5, Insulin-degrading enzyme. As to the kind of experiment: recombinant IDE activation, cell-free – biochemical, fluorescence polarization, counter-screen for IDE activator project, dose response (AID 588681).
Test [10] has as its target Eukaryotic translation initiation factor 4E (Mus musculus, UniProt P63073). As to the kind of experiment: blockers of eIF4G binding by eIF4E – biochemical, TR-FRET, dose response (AID 855).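 Further: potency for disrupting eIF4E binding to eIF4GI seen as loss of FRET.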 In kind it is functional. (In general: Time-resolved FRET reads energy transfer from a long-lived donor to a nearby acceptor.)
The subject of test [11] is HEK293. As to the kind of experiment: membrane integrity loss in HEK cells – cell-based, fluorescence, cytotoxicity control for IDE activator project, dose response (AID 588440).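 Further: cytotoxicity by LDH release measuring loss of membrane integrity.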 Type of test: functional. The conditions noted are these: Homo sapiens.
The subject of test [12] is HEK293. Briefly: optical interference in Abeta FP readout, dose response, artefact control for IDE activator project, biochemical, fluorescence polarization (AID 588442). Type of test: functional, cell-based. To be noted: Homo sapiens.

Chain of DNA dC->dU-editing enzyme APOBEC-3A (P31941 whole entry): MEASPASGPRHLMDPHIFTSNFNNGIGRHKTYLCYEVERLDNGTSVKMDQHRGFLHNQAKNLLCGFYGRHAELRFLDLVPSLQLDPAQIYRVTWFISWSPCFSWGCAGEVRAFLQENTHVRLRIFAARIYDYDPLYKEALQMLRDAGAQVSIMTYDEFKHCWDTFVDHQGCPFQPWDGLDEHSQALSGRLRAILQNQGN
Chain of Eukaryotic translation initiation factor 4E (P63073 whole entry): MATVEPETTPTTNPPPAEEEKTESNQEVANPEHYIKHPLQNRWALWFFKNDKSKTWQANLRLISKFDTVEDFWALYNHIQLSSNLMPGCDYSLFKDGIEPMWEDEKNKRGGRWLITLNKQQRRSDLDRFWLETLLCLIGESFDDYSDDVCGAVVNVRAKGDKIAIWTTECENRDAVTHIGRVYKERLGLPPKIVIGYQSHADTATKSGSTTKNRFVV

Consider `Cc1ccc(Cl)c2sc(NC(=O)c3ccc(S(=O)(=O)N4CC(C)CC(C)C4)cc3)nc12` (configuration not stated), for which the IC50 (in [1]; in test [2]; in test [3]; at Caspase-3) was > 99 µM (inactive) throughout.

With `Cc1cccc(-c2nc(/C=C/c3ccc(F)cc3)no2)c1`, the IC50 (in test [1]; in [2]; in test [3]; at Caspase-3) was > 99 µM (inactive) in each case.

As to `CCCc1nnc2c3c4c(sc3ncn12)CCCC4`, the IC50 in test [4] and in [5] was > 99 µM (inactive) each time.

On to `CCN1CCN(CCNC(=O)c2ccc(/C=C3/Sc4ccccc4N(Cc4cccc(Cl)c4)C3=O)cc2)CC1`, for which the EC50 in test [6] is 8.47 µM (active); in test [7], 1.41 µM (active); at Insulin-degrading enzyme [8] it was > 54.7 µM (inactive); on Insulin-degrading enzyme [9], 53.4 µM (inactive); in the test with HEK293 [12], > 55.9 µM (inactive). For the same compound, the results for the IC50 (in test [10]; with HEK293 [11]) were 50 µM (inactive) and 19.5 µM (inactive), respectively.
